Laboratory results taken from patent publication EP0511381B1, “SQUARYLIUM AND CROCONYLIUM DYES” (POLAROID CORPORATION, priority 1990, dated 1992).
Counter-ions that a name gives are not always drawn. One block for each compound: values may come before it.

Columns and labels:
Assay type in all cases: physicochemical
[1] = Solubility in dichloromethane (saturated solution); details: weight percentage of dye to solvent in a saturated solution
Source text: This Example illustrates the high solubility in halogenated organic solvents which can be achieved by dyes of the present invention, as compared with similar dyes which bear 2-phenyl or -substituted phenyl groups.

[2] = Storage stability of thermal imaging medium containing the dye; details: imaging medium (dye, leuco dye LD3, polyurethane Estane 5715 binder) stored at 60°C for 4 days
Protocol: A coating fluid was prepared by combining the infra-red dye of Formula IR4 above (prepared in Example 12 above, 2.6 mg) with a leuco dye of Formula LD3 above (110 mg) and a polymeric binder (polyurethane Estane 5715, supplied by B.F. Goodrich, 0.73 mL of a 15% solution in acetone). The fluid was diluted with acetone (0.157 mL), then coated onto a 4 mil (101 »m) transparent poly(ethylene terephthalate) base using a #12 coating rod. The film so formed was laminated at 180°F […] and 60 psi (0.4 MPa) to a second sheet of 4 mil (101 »m) poly(ethylene terephthalate) which had been coated with Joncryl 138 to a thickness of approximately 2 »m.

[3] = Absorption and thermal stability of dye in polymer films; parameters: λmax: unit not given here; details: for Width: full width of infra-red absorption peak at half maximum
Protocol: This Example illustrates the high absorptions which can be achieved by a dye of the present invention when dispersed in a polymer, and the thermal stability of such dispersed polymer.
The polymers tested in this Example were polystyrene/acrylonitrile, polyvinylbutyral and polyvinylformal polymers. 10.0 mg of the dye (hereinafter referred to as "Dye B") prepared as described in Example 5 above was dissolved in 2.0 mL of a 2.5% w/v solution of each polymer in dichloromethane, and the resultant solution was coated onto a transparent 4 mil polyvinyl chloride base using a No. 10 coating rod. The resultant film was oven dried at 80°C for 10 minutes. After the film had cooled, the wavelength of maximum infra-red absorption (λmax), the absorbance at λmax (Amax), and the full width of the infra-red absorption peak at half maximum were measured. The film samples were then stored in the dark for 15 days at 80°C, and the same absorption parameters were remeasured to give the data shown in Table 1, in which initial values are shown, with values after heating in parentheses.

[4] = Photochemical stability of dye in polymer films
Protocol: This Example illustrates the photochemical stability of a dye of the present invention in a polymer matrix.
20 mg of Dye B prepared as described in Example 5 above and 100 mg of a test polymer (polyvinylbutyral or polyacrylate) were dissolved in dichloromethane, and the resultant solution was coated onto PET transparent base using a #4 coating rod. The maximum absorbance of the resultant film was measured before and after exposure of the coated side of the base to irradiation with a fluorescent lamp (560 ft. candles) for 24 or 67 hours. The results are shown in Table 2 below (with the absorbance after irradiation in parentheses).

[5] = Polyvinylbutyral film, after 15 days at 80°C in the dark
[6] = Polyvinylbutyral film, initial value
[7] = Polyvinylformal film, after 15 days at 80°C in the dark
[8] = Polyvinylformal film, initial value
[9] = SAN (polystyrene/acrylonitrile) film, after 15 days at 80°C in the dark
[10] = SAN (polystyrene/acrylonitrile) film, initial value

Amax [3, 5]: 2.16
λmax [3, 5]: 812
Amax [3, 6]: 2.99
λmax [3, 6]: 815
Amax [3, 7]: 2.64
λmax [3, 7]: 820 (820)
Amax [3, 8]: 2.62
λmax [3, 8]: 820 (820)
Amax [3, 9]: 2.68
λmax [3, 9]: 826 (826)
Amax [3, 10]: 2.59
λmax [3, 10]: 826 (826)
Width [3, 5]: 79 nm
Width [3, 6]: 70 nm
Width [3, 7]: 80 (80) nm
Width [3, 8]: 80 (80) nm
Width ([3]; SAN film, after 15 days at 80°C in the dark): 74 (74) nm
Width ([3]; SAN film, initial value): 74 (74) nm
Amax ([4]; Polyacrylate film, after 24 hours irradiation with fluorescent lamp (560 ft. candles)): 0.78
Amax ([4]; Polyacrylate film, before irradiation): 0.84
Amax ([4]; Polyvinylbutyral film, after 67 hours irradiation with fluorescent lamp (560 ft. candles)): 1.018
Amax ([4]; Polyvinylbutyral film, before irradiation): 1.225
Solubility [1]: 11.5 wt. %
Structure (SMILES): CCN(CC)c1ccc2c(c1)OC(C(C)(C)C)=CC2=CC1=C([O-])C(=Cc2cc(C(C)(C)C)[o+]c3cc(N(CC)CC)ccc23)C1=O [Dye B]

Solubility [1]: 0.1 wt. %
Structure (SMILES): CCN(CC)c1ccc2c(c1)OC(c1ccc(C)cc1C)=CC2=CC1=C([O-])C(=Cc2cc(-c3ccc(C)cc3C)[o+]c3cc(N(CC)CC)ccc23)C1=O [Control Dye z, reference compound]

Solubility [1]: 0.4 wt. %
Structure (SMILES): CCN(CC)c1ccc2c(c1)OC(C1CCCCC1)=CC2=CC1=C([O-])C(=Cc2cc(C3CCCCC3)[o+]c3cc(N(CC)CC)ccc23)C1=O [Dye F, 4-[[3-[2-cyclohexyl-7-diethylamino-(benz[b]-4H-pyran-4-ylidene)methyl]-2-hydroxy-4-oxo-2-cyclobuten-1-ylidene]methyl]-2-cyclohexyl-7-diethylaminobenz[b]pyrylium hydroxide inner salt dye]

More lines, now with the values behind:

Structure (SMILES): CCN(CC)c1ccc2c(c1)OC(c1ccccc1)=CC2=CC1=C([O-])C(=Cc2cc(-c3ccccc3)[o+]c3cc(N(CC)CC)ccc23)C1=O [Control Dye y, reference compound]
Solubility [1]: 0.02 wt. %

Structure (SMILES): CCC(CC)COc1ccc2c(c1)OC(C(C)(C)C)=CC2=CC1=C([O-])C(=Cc2cc(C(C)(C)C)[o+]c3cc(N(CC)CC)ccc23)C1=O [IR4, 4-[[3-[[7-diethylamino-2-[1,1-dimethylethyl]benz[b]-4H-pyran-4-ylidene]methyl]-2-hydroxy-4-oxo-2-cyclobuten-1-ylidene]methyl]-7-[2-ethylbut-1-oxy]-2-[1,1-dimethylethyl]benz[b]pyrylium hydroxide inner salt dye]
loss of near infra-red absorption [2]: 2.4%
